Test results as given in patent US8877932B2, “Anhydrous lenalidomide form-I” (Natco Pharma Limited, priority 2010, dated 2014).
In brackets after ≈: the same amount, converted by molar mass. Read-outs that look alike come from different tables or passages of the source.

Assays:
[1] = reported in US 2005/0096351 A1; cited from earlier work
[2] = Equilibrium solubility; assay type: physicochemical; details: pH 1.8, 1% sodium lauryl sulfate
Protocol: A solid sample of 450 mg was stirred in 50 mL of dissolution medium (HCl buffer, pH 1.8, with 1% sodium lauryl sulfate) using a mechanical stir rod. Aliquots were filtered and centrifuged at 3500 rpm using 0.2-μm nylon syringe filters and immediately diluted 1 mL→50 mL, then 5 mL→425 mL with dissolution medium. In some cases, the undissolved solids were recovered and sent for X-ray powder diffraction (XPRD) studies.
(§1) Both the solubility and dissolution experiments were conducted in a medium of HCl buffer, pH 1.8, containing 1% sodium lauryl sulfate. The solubilities were estimated to be 3.15 mg/ml for Form 1 & 3.28 mg/ml for Form B, respectively.

[3] = Intrinsic dissolution (Woods apparatus); assay type: physicochemical; details: HCl buffer, pH 1.8, 1% sodium lauryl sulfate, 37° C., 50 rpm
Protocol: Dissolution experiments were carried out in a ELECTROLAB-8 dissolution apparatus equipped with a ETC-112 temperature controller. An intrinsic dissolution apparatus (Woods apparatus) was used. Samples were compressed at 2.0 metric tons for 1 min in KBr hydraulic press, giving a sample surface of 0.50 cm^2. A dissolution medium consisting of 900 mL HCl buffer, pH 1.8, with 1% sodium lauryl sulfate, was used for each experiment. The medium was degassed by vacuum filtration through a 0.45-μm nylon filter disk and maintained at 37° C. The apparatus was rotated at 50 rpm for each experiment. Aliquots were filtered immediately using 0.45-μm nylon syringe filters. In some cases, the undissolved solids were recovered and analyzed by X-ray powder diffraction (XRPD).
as §1

[4] = Bulk density; assay type: physicochemical
Source text: Batch No—0812/006 • Untapped Density—0.286 g/ml • Tapped density—0.481 g/ml • III. Batch No—0812/006 • Untapped Density—0.286 g/ml • Tapped density—0.481 g/ml

[5] = Storage stability at room temperature; assay type: physicochemical; details: more than a year at room temperature (25-35° C.)
Protocol: The thus obtained anhydrous novel form is very stable at room temperature (25-35° C.) and is not absorbing water or converting to any reported hydrated forms.

[6] = Moisture content of prepared Form-I samples; assay type: physicochemical; details: samples as prepared
[7] = Encapsulated Form I compared with […] capsules (XRPD, moisture content); assay type: physicochemical
Source text: The sample of lenalidomide Form I API is encapsulated & compared with the […] capsules.

[8] = Accelerated stability studies; assay type: physicochemical
Protocol: The lenalidomide Form I sample are subjected to accelerated stability studies under following conditions & analyzed at initial after 1, 2, 3 and 6 months. • Condition 1—temperature: 40° C.±2° C. • Relative humidity: 75% RH±5% • Condition 1—temperature: 30° C.±2° C. • Relative humidity: 65% RH±5%
We have not observed major deviation in quality of samples analysed of initial samples after 1,2, 3 and 6 months.
No increase in impurity profile is observed in 1,2, 3 and 6 months sample.

[9] = Humidity test; assay type: physicochemical
Protocol: The anhydrous form of lenalidomide along with two batches (0812/006 & 0812/007 &) were subjected for humidity test.
NaBr, NH4Cl, KOH, Na2HPO4 were used as Saturated solution at temperature 25.1° C., 25° C., 24.7° C., 26.8° C. and humidity 84%, 79%, 23%, 93% respectively at initial water content of 0.08%.

[10] = Thermal stability of Lenalidomide Form I; assay type: physicochemical; details: heating at 95 to 105° C. for 7 days
Protocol: The lenalidomide Form I obtained after drying temperature 65 to 75° C. under vacuum is taken subjected to heating at 95 to 105° C. in oil bath, kept in rotator vapor for 7 days, cool to room temperature and the sample is analyzed per IR, NMR, XRPD (X-ray powder diffractometry), DSC (differential scanning calorimetry) & TGA (thermogravimetry). […] The moisture content is also determined for sample and found to be less than 1%.

[11] = 40° C./75% RH and 30° C./65% RH, 1, 2, 3 and 6 months

**Q.** With `Nc1cccc2c1CN(C1CCC(=O)NC1=O)C2=O` (centres unmarked) [Form-E, 3-(4-amino-1-oxo-1,3-dihydro-isoindole-2-yl)-piperidine-2,6-dione] as the compound, how does the moisture content [1] read?
**A.** Its moisture content is 11.9%.

**Q.** For `Nc1cccc2c1CN(C1CCC(=O)NC1=O)C2=O` (centres unmarked) [Form-B, 3-(4-amino-1-oxo-1,3-dihydro-isoindole-2-yl)-piperidine-2,6-dione, reference compound], which solubility ([2]; HCl buffer, 25° C.) is on record?
**A.** The solubility was 3280 µg/mL (≈ 12.7 mM).

**Q.** What about the dissolution rate [3] of the same compound?
**A.** Its dissolution rate is 0.250 mg/min/cm^2.

**Q.** And the moisture content [1]?
**A.** The moisture content was 3.1%.

**Q.** With `Nc1cccc2c1CN(C1CCC(=O)NC1=O)C2=O` (centres unmarked) [Form A, 3-(4-amino-1-oxo-1,3-dihydro-isoindol-2-yl)-piperidine-2,6-Dione] as the compound, how does the hygroscopicity [1] read?
**A.** Its hygroscopicity is “not hygroscopic”.

**Q.** With `Nc1cccc2c1CN(C1CCC(=O)NC1=O)C2=O` (centres unmarked) [Form-I, 3-(4-amino-1-oxo-1,3-dihydro-isoindole-2-yl)-piperidine-2,6-dione] as the compound, how does the solubility ([2]; HCl buffer with 1% sodium lauryl sulfate, 25 °C, pH 1.8, aqueous with cosolvent or surfactant or cyclodextrin, thermodynamic from solid, read-out: solubility) read?
**A.** Its solubility is 3150 µg/mL (≈ 12.1 mM).

**Q.** And the Tapped density ([4]; listed as 0812/005)?
**A.** Its Tapped density is 0.465 g/mL.

**Q.** What about the “Untapped Density” value ([4]; listed as 0812/005) of the same compound?
**A.** Its value is 0.278 g/mL.

**Q.** What about the Tapped density ([4]; listed as 0812/006) of the same compound?
**A.** Its Tapped density is 0.481 g/mL.

**Q.** And the “Untapped Density” value ([4]; listed as 0812/006)?
**A.** Its value is 0.286 g/mL.

**Q.** And the “conversion to hydrated form on storage” value [5]?
**A.** The value was “not converted into any hydrated from”.

**Q.** And the moisture content [6]?
**A.** Its moisture content is “less than 0.1%”.

**Q.** What about the dissolution rate [3] of the same compound?
**A.** Its dissolution rate is 0.421 mg/min/cm^2.

**Q.** And the “polymorphic form after encapsulation (XRPD)” value [7]?
**A.** Its value is “not changed even after encapsulation”.

**Q.** And the impurity profile [8, 11]?
**A.** The impurity profile was “No increase”.

**Q.** And the “moisture content after accelerated stability storage” value [8, 11]?
**A.** The value was 0.21 % w/w.

**Q.** What about the “conversion to hydrated polymorphic form” value ([8]; 40° C./75% RH and 30° C./65% RH, up to 6 months) of the same compound?
**A.** Its value is “not converted in any of the hydrated polymorphic form”.

**Q.** What about the “moisture content, initial” value ([8]; before accelerated stability storage) of the same compound?
**A.** Its value is 0.09 % w/w.

**Q.** What about the “water content after humidity test” value ([9]; KOH saturated solution, 24.7° C., humidity 23%) of the same compound?
**A.** Its value is 0.12 % w/w.

**Q.** And the “water content after humidity test” value ([9]; NH4Cl saturated solution, 25° C., humidity 79%)?
**A.** The value was 0.13 % w/w.

**Q.** What about the “water content after humidity test” value ([9]; Na2HPO4 saturated solution, 26.8° C., humidity 93%) of the same compound?
**A.** The value was 0.10 % w/w.

**Q.** What about the “water content after humidity test” value ([9]; NaBr saturated solution, 25.1° C., humidity 84%) of the same compound?
**A.** The value was 0.21 % w/w.

**Q.** And the initial water content ([9]; before humidity test)?
**A.** Its initial water content is 0.08%.

**Q.** What about the “change in impurity profile” value [10] of the same compound?
**A.** The value was “No further change”.

**Q.** And the “change in spectral data (IR, NMR, XRPD, DSC, TGA)” value [10]?
**A.** The value was “No change is observed”.

**Q.** What about the “moisture content after heating” value [10] of the same compound?
**A.** Its value is “less than 1%”.
